In publication PMC9225965 (Bioorganic & Medicinal Chemistry Letters, 2022):

Legend:
[1] = molecular target: SARS-CoV-2 M^pro (Severe acute respiratory syndrome coronavirus 2, UniProt P0DTD1); experiment: biochemical; settings: for inhibition at 50 µM: read-out: M^pro inhibition
[2] = tested on: SARS-CoV-2 main protease; settings: read-out: reported IC50; similar FRET-based assays; cited from earlier work

Compound: COCCn1c(C(=O)NCC(O)c2ccccc2)nc2ccccc2c1=O (stereo not shown) [Compound 10]
- inhibition at 50 µM [1]: > 50%

Compound: O=C(CSc1nc2cc(Cl)ccc2n1Cc1ccccc1)N1CCNC1=O [Compound 8]
- activity in the presence of Triton-X (aggregation control) ([1]; IC50 experiment repeated with 0.02 % Triton-X in reaction buffer): not attenuated
- inhibition at 50 µM [1]: > 50%
